According to patent US11345702B1 (Myoforte Therapeutics, Inc., priority 2020, dated 2022):
pIC50: −log10 of the molar value.

Target: 15-PGDH/HPGD (Homo sapiens (Human), UniProt P15428)
Assay: hPGDH inhibitor screening biochemical assay
Conditions: read-out: hPGDH: Average IC50
Protocol: A hydroxyprostaglandin dehydrogenase inhibition screening biochemical assay can be performed to assess the synthesized inhibitors provided herein. Provided herein is an exemplary biochemical assay for hPGDH inhibitor screening.
The in vitro biochemical assay can be performed in white, 384 plates in total 20 μl reaction volume consisting of 10 nM of 15-PGDH/HPGD (R&D System #5660-DH), 15 μM Prostaglandin E2 (Sigma, Cat #P5640-10MG) and 0.25 mM (3-Nicotinamide adenine dinucleotide sodium salt (Sigma, Cat #N0632-5G) made in reaction buffer (50 mM Tris-HCl, pH 7.5, 0.01% Tween 20) at 10-point dose response curve for test/tool compounds. Briefly, 5 μl (4×) of compounds solution and 5 μl (final concentration, 10 nM) of enzyme solution is added to white 384 well plates and incubated for 10 mins at 37° C. 5 μl (4×) of Prostaglandin E2 and 5 μl (4×) of β-Nicotinamide adenine dinucleotide sodium salt is added to the wells and incubated for 10 mins at room temperature. Fluorescence is recorded at ex/em=340 nm/485 nm. The percentage (%) inhibition of enzyme activity was determined relative to positive control (1% DMSO) and IC50 was calculated using GraphPad prism software (four parameter-variable slope equation).

15-PGDH/HPGD, sequence (P15428 whole entry): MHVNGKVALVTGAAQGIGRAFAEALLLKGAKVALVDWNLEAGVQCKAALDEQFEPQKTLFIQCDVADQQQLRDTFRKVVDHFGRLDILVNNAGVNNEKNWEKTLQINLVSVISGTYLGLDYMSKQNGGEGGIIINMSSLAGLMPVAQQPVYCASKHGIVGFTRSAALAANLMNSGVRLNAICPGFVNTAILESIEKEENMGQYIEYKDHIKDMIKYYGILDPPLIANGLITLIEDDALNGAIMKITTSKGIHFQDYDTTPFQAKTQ

Row | Compound | pIC50
1 | O=C(c1cnc2c(ccn2-c2cccc(CO)c2)c1)N1CCC(F)CC1 [MF-DH-348] | > 7.00
2 | N#Cc1cccc(-n2ccc3cc(C(=O)N4CCC(F)CC4)cnc32)c1 [MF-DH-344] | > 7.00
3 | CN(C)c1cccc(-n2ccc3cc(C(=O)N4CCCCC4)cnc32)c1 [MF-DH-302] | > 7.00
4 | NS(=O)(=O)c1ccc(-n2ccc3cc(C(=O)N4CCC(F)(F)CC4)cnc32)cc1 [MF-DH-496] | > 7.00
5 | O=C(c1ccc(COc2ccccc2-c2cncs2)cc1)N1CCCCC1 [MF-PGDH-097] | > 7.00
6 | NC(=O)c1cccc(-n2ccc3cc(C(=O)N4CCCCC4)cnc32)c1 [MF-DH-301] | > 7.00
7 | O=C(c1cnc2c(ccn2-c2cnccn2)c1)N1CCC(F)CC1 [MF-DH-123] | > 7.00
8 | CC(N)c1cccc(-n2ccc3cc(C(=O)N4CCCCC4)cnc32)c1 (stereo not shown) [MF-DH-376, (1-(3-(1-aminoethyl)phenyl)-1H-pyrrolo[2,3-b]pyridin-5-yl)(piperidin-1-yl)methanone] | 6.00 to 7.00
9 | NC(=O)c1ncc(-n2ccc3cc(C(=O)N4CCCCC4)cnc32)cn1 [MF-DH-384] | > 7.00
10 | O=C(c1cnc2c(c1)ncn2-c1ccc(OC(F)F)cc1)N1CCC(F)CC1 [MF-DH-222] | 6.00 to 7.00
11 | CN(C)C(=O)c1ccc(-n2ccc3cc(C(=O)N4CCCCC4)cnc32)cc1 [MF-DH-369] | > 7.00
12 | COc1cccc(C(=O)Nc2ccc(C(=O)N3CCCCC3)cc2)c1 [MF-PGDH-089] | 6.00 to 7.00
13 | Cc1cc(-n2ccc3cc(C(=O)N4CCCCC4)cnc32)cnc1N [MF-DH-392] | > 7.00
14 | O=C1CCN(C(=O)c2ccc3c(c2)ncn3-c2cccc(Cl)c2)C1 [MF-PGDH-090, 1-(1-(3-chlorophenyl)-1H-benzo[d]imidazole-5-carbonyl)pyrrolidin-3-one] | ≤ 6.00
15 | NC(=O)c1cccc(-n2ccc3cc(C(=O)N4CCC(F)CC4)cnc32)c1 [MF-DH-345] | > 7.00
16 | COc1ccc(-n2ccc3c(N)c(C(=O)N4CCCCC4)cnc32)cc1 [MF-DH-290, (4-amino-1-(4-methoxyphenyl)-1H-pyrrolo[2,3-b]pyridin-5-yl)(piperidin-1-yl)methanone] | > 7.00
17 | O=C(c1ccc2c(c1)c(Cl)nn2-c1cncc(Cl)c1)N1CCCCC1 [MF-DH-271] | 6.00 to 7.00
18 | COc1ccc(-n2ccc3cc(C(=O)N4CCN(CC(F)(F)F)CC4)cnc32)cc1 [MF-DH-327] | ≤ 6.00
19 | COc1ccc(-n2ccc3cc(C(=O)N4CCCCC4)cnc32)cn1 [MF-DH-323] | > 7.00
20 | COCCc1nc2cc(C(=O)N3CCC(F)CC3)ccc2n1-c1ccc(OC)cc1 [MF-DH-186] | 6.00 to 7.00
21 | O=C(c1ccc2c(c1)CCCN2c1cccc(Cl)c1)N1CCCCC1 [MF-PGDH-057, (1-(3-chlorophenyl)-1,2,3,4-tetrahydroquinolin-6-yl)(piperidin-1-yl)methanone] | > 7.00
22 | NC(=O)[C@@H]1CCCN1C(=O)c1ccc(-n2ccc3cc(C(=O)N4CCC(F)(F)CC4)cnc32)cc1 [MF-DH-450, (S)-1-(4-(5-(4,4-difluoropiperidine-1-carbonyl)-1H-pyrrolo[2,3-b]pyridin-1-yl)benzoyl)pyrrolidine-2-carboxamide] | > 7.00
23 | O=C(c1ccc(CS(=O)(=O)c2ccccc2Cl)cc1)N1CCCCC1 [MF-PGDH-040, (4-(((2-chlorophenyl)sulfonyl)methyl)phenyl)(piperidin-1-yl)methanone] | 6.00 to 7.00

Further lines, results first:

Row | pIC50 | Compound
24 | > 7.00 | O=C(c1cnc2c(ccn2-c2cnccn2)c1Cl)N1CCC(F)CC1 [MF-DH-146]
25 | > 7.00 | O=C(c1cnc2c(ccn2-c2ccc(-c3noc(=O)[nH]3)nc2)c1)N1CCC(F)(F)CC1 [MF-DH-456, 3-(5-(5-(4,4-difluoropiperidine-1-carbonyl)-1H-pyrrolo[2,3-b]pyridin-1-yl)pyridin-2-yl)-1,2,4-oxadiazol-5(4H)-one]
26 | > 7.00 | O=C(c1cnc2c(ccn2-c2cccc(C(=O)N3CCS(=O)(=O)C3)c2)c1)N1CCC(F)(F)CC1 [MF-DH-497, (4,4-difluoropiperidin-1-yl)(1-(3-(1,1-dioxidothiazolidine-3-carbonyl)phenyl)-1H-pyrrolo[2,3-b]pyridin-5-yl)methanone]
27 | > 7.00 | O=C(c1ccc2c(-c3cccc(Cl)c3)c[nH]c2c1)N1CCCCC1 [MF-PGDH-053, (3-(3-chlorophenyl)-1H-indol-6-yl)(piperidin-1-yl)methanone]
28 | 6.00 to 7.00 | CC(C)(O)C#Cc1nc2cc(C(=O)N3CCC(F)(F)CC3)cnc2n1-c1ccc(C#N)cc1 [MF-DH-476, 4-(6-(4,4-difluoropiperidine-1-carbonyl)-2-(3-hydroxy-3-methylbut-1-yn-1-yl)-3H-imidazo[4,5-b]pyridin-3-yl)benzonitrile]
29 | > 7.00 | O=C(NC1CCNCC1)c1ccc(-n2ccc3cc(C(=O)N4CCC(F)(F)CC4)cnc32)cc1 [MF-DH-419]
30 | > 7.00 | CC(C)(O)c1ccc(-n2ccc3cc(C(=O)N4CCCCC4)cnc32)cc1 [MF-DH-371]
31 | > 7.00 | O=C(c1cnc2c(ccn2-c2ccncn2)c1)N1CCC(F)CC1 [MF-DH-131]
32 | > 7.00 | O=C(c1cnc2c(c1)c(Cl)cn2-c1ccc2c(c1)OC(F)(F)O2)N1CCCCC1 [MF-DH-251]
33 | > 7.00 | NC(=O)c1cncc(-n2ccc3cc(C(=O)N4CCCCC4)cnc32)c1 [MF-DH-361]
34 | > 7.00 | Cn1cc(-n2ccc3cc(C(=O)N4CCCCC4)cnc32)cn1 [MF-PGDH-076]
35 | > 7.00 | Cc1cncc(-n2ccc3cc(C(=O)N4CCCCC4)cnc32)c1 [MF-DH-320]
36 | 6.00 to 7.00 | O=C(c1ccc2c(c1)ncn2-c1cccc(Cl)c1)N1CCC(F)C1 (stereo not shown) [MF-PGDH-048]
37 | > 7.00 | O=C(c1cnc2c(ccn2-c2ccc(CO)cc2)c1)N1CCC(F)CC1 [MF-DH-347]
38 | 6.00 to 7.00 | O=C(c1ccc2c(c1)ncn2-c1cccc(Cl)c1)N1CCCC1 [MF-PGDH-046]
39 | 6.00 to 7.00 | O=C(NC1CC1)c1ccc2c(c1)ncn2-c1cccc(Cl)c1 [MF-PGDH-063]
40 | 6.00 to 7.00 | COc1ccc(-c2cn(C)c3cc(C(=O)N4CCC(F)CC4)cnc23)cc1 [MF-DH-181, (4-fluoropiperidin-1-yl)(3-(4-methoxyphenyl)-1-methyl-1H-pyrrolo[3,2-b]pyridin-6-yl)methanone]
41 | ≤ 6.00 | CN(C(=O)c1ccc2c(c1)ncn2-c1cccc(Cl)c1)C1CC1 [MF-PGDH-064, 1-(3-chlorophenyl)-N-cyclopropyl-N-methyl-1H-benzo[d]imidazole-5-carboxamide]

Row | pIC50 | Compound
42 | 6.00 to 7.00 | CCC(CC)n1cnc2cc(C(=O)N3CCCCC3)cnc21 [MF-DH-236]
43 | > 7.00 | NC[C@@H]1CN(c2ccc(-n3ccc4cc(C(=O)N5CCC(F)(F)CC5)cnc43)cn2)C(=O)O1 [MF-DH-478]
44 | > 7.00 | COc1cncc(-n2cc(Cl)c3cc(C(=O)N4CCCCC4)cnc32)c1 [MF-DH-275]
45 | > 7.00 | CCNC(=O)c1ccc(-n2ccc3cc(C(=O)N4CCC(F)(F)CC4)cnc32)nc1 [MF-DH-477, 6-(5-(4,4-difluoropiperidine-1-carbonyl)-1H-pyrrolo[2,3-b]pyridin-1-yl)-N-ethylnicotinamide]
46 | > 7.00 | COc1ccc(-n2ccc3cc(C(=O)N4CCCCC4)cnc32)cc1 [MF-DH-297]
47 | ≤ 6.00 | Cc1nc2c(cc1C(=O)N1CCC(F)CC1)c(Cl)cn2-c1cnccn1 [MF-DH-149]
48 | > 7.00 | Cc1c(C(=O)N2CCC(F)CC2)cnc2c1ccn2-c1cnccn1 [MF-DH-150, (4-fluoropiperidin-1-yl)(4-methyl-1-(pyrazin-2-yl)-1H-pyrrolo[2,3-b]pyridin-5-yl)methanone]
49 | 6.00 to 7.00 | COc1ccccc1NC(=O)c1ccc(C(=O)N2CCCCC2)cc1 [MF-PGDH-043, N-(2-methoxyphenyl)-4-(piperidine-1-carbonyl) benzamide]
50 | > 7.00 | N#Cc1ccc(-n2ccc3cc(C(=O)N4CCC(F)(F)CC4)cnc32)cc1 [MF-DH-439]
51 | > 7.00 | CCNC(=O)c1ccc(-n2ccc3cc(C(=O)N4CCC(F)(F)CC4)cnc32)cc1 [MF-DH-418]
52 | > 7.00 | O=C(c1ccc2c(c1)ncn2-c1ccc(O)c(Cl)c1)N1CCCCC1 [MF-PGDH-061, (1-(3-chloro-4-hydroxyphenyl)-1H-benzo[d]imidazol-5-yl)(piperidin-1-yl)methanone]
53 | 6.00 to 7.00 | COc1ccc(-n2c(C)nc3cc(C(=O)N4CCC(F)CC4)cnc32)cc1 [MF-DH-176]
54 | 6.00 to 7.00 | Cc1cn(-c2cncnc2)c2ccc(C(=O)N3CCC(F)CC3)cc12 [MF-DH-178, (4-fluoropiperidin-1-yl)(3-methyl-1-(pyrimidin-5-yl)-1H-indol-5-yl)methanone]
55 | 6.00 to 7.00 | CC1(C)CCN(c2cnccn2)c2ccc(C(=O)N3CCC(F)CC3)cc21 [MF-DH-160, (4,4-dimethyl-1-(pyrazin-2-yl)-1,2,3,4-tetrahydroquinolin-6-yl)(4-fluoropiperidin-1-yl)methanone]
56 | ≤ 6.00 | O=C(Nc1ccccc1)c1ccc2c(c1)ncn2-c1cccc(Cl)c1 [MF-PGDH-065]
57 | 6.00 to 7.00 | O=C(c1cnc2c(c1)ncn2-c1cccc(OC(F)(F)F)c1)N1CCC(F)CC1 [MF-DH-226]
58 | > 7.00 | NC(=O)[C@@H]1CCCN1C(=O)c1cccc(-n2ccc3cc(C(=O)N4CCC(F)(F)CC4)cnc32)c1 [MF-DH-486, (S)-1-(3-(5-(4,4-difluoropiperidine-1-carbonyl)-1H-pyrrolo[2,3-b]pyridin-1-yl)benzoyl)pyrrolidine-2-carboxamide]
